From patent US20140349970A1 (ABBVIE INC., priority 2009, published 2014)
Read-outs that look alike come from different tables or passages of the source.

Target: T1, Syk catalytic domain (aa 356-635 with a C-terminal His-tag) (Homo sapiens, UniProt P43405)
T1 construct: His-tag (C); made in house
Experiment: In vitro Syk kinase activity measured by trFRET, Syk catalytic domain
Format: biochemical
Method in brief: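 Kinase reaction: 0.14 nM His-tagged catalytic domain, 0.2 μM biotin-TYR1 peptide, 0.001 mM ATP in 50 mM MOPSO pH 6.5 with MgCl2, MnCl2, DTT, BSA, vanadate, ~60 min at rt, then EDTA quench. Phosphoproduct detected by trFRET (Eu anti-pTyr antibody/streptavidin-APC, 665 nm emission); IC50 from signal in linear range.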

[1] = Syk catalytic domain (aa 356-635), trFRET, 0.001 mM ATP

Compound | IC50 [nM] | IC50 [1] [nM]
CN(C)CCNC(=O)c1ccc2c(c1)c(-c1cc3c(ncc4cnn(C)c43)[nH]1)cn2C [J.1.8.2] | – | 100 to 1000
Cc1ccc2c(c1)c(-c1cc3c(ncc4cnn(C)c43)[nH]1)cn2C [N.1.111] | – | < 100
CC(C)(N)c1ccc(-c2nc(C3CCCCC3)n3c2cnc2[nH]ccc23)cc1 [P.3.1.1, 2-(4-(1-Cyclohexyl-6H-imidazo[1,5-a]pyrrolo[2,3-e]pyrazin-3-yl)phenyl)propan-2-amine] | 100 to 1000 | –
Cn1cc(-c2cc3c(ncc4cnn(C)c43)[nH]2)c2cc(F)ccc21 [N.1.17] | – | < 100
Cc1cc(-c2ncn3c2cnc2[nH]ccc23)ccn1 [AC.4.5] | 100 to 1000 | –
CC(C)(CO)c1ccc(-c2ncn3c2cnc2[nH]ccc23)cc1 [AC.4.1] | < 100 | –
COc1ccc(-c2nnn3c2cnc2[nH]ccc23)cc1 [N.1.107] | – | 100 to 1000
Cn1ncc2cnc3[nH]c(-c4cccc(CNS(C)(=O)=O)c4)cc3c21 [K.1, N-(3-(1-Methyl-1,6-dihydropyrazolo[3,4-d]pyrrolo[2,3-b]pyridin-7-yl)benzyl)methanesulfonamide] | – | 100 to 1000
Cc1nc(-c2ccc(S(C)(=O)=O)cc2)c2cnc3[nH]ccc3n12 [AC.1.6] | 100 to 1000 | –
CCc1c(-c2ccc(OCCOC)cc2)[nH]c2ncc3cnn(C)c3c12 [N.1.79] | – | 100 to 1000
Cc1nc(-c2ccc(S(=O)(=O)C(C)C)cc2)c2cnc3[nH]ccc3n12 [AC.1.11] | 100 to 1000 | –
COc1ccc(-c2nc(CN3CCNCC3)n3c2cnc2[nH]ccc23)cc1 [T.3.1.4] | 100 to 1000 | –
COc1ccc(-c2nc(CNC3CC3)n3c2cnc2[nH]ccc23)cc1 [N.1.114] | – | 1000 to 10000
CCCNC(=O)c1ccc(-c2nc(C)n3c2cnc2[nH]ccc23)cc1Cl [J.1.6.1] | – | 100 to 1000
Cc1nc(-c2ccc(S(=O)(=O)N(C)C)cc2)c2cnc3[nH]ccc3n12 [AC.1.10] | 100 to 1000 | –
COc1ccc(-c2ncn3c2cnc2[nH]ccc23)cc1 [N.1.98] | – | < 100

Compound | IC50 [nM] | IC50 [1] [nM]
Cn1ncc2cnc3[nH]c(-c4ccc5nccnc5c4)cc3c21 [N.2.8] | – | 100 to 1000
COc1ccc(-c2nc(C)n3c2cnc2[nH]ccc23)c(Cl)c1 [AC.1.19] | 1000 to 10000 | –
COc1ccc(-c2nc([C@H]3CCC[C@@H](NC(C)=O)C3)n3c2cnc2[nH]ccc23)cc1 [J.2.1.7] | – | 100 to 1000
Fc1ccc(-c2nc(C3CCCCC3)n3c2cnc2[nH]ccc23)cc1 [AC.3.2] | 1000 to 10000 | –
COc1ccc(-c2nc(C(=O)NCCO)n3c2cnc2[nH]ccc23)cc1 [J.1.2.1] | – | < 100
CCc1c[nH]c2ncc3c(-c4ccc(OC)c(F)c4)nn(C)c3c12 [N.1.67] | – | 100 to 1000
COc1ccc2c(c1)c(-c1cc3c4c(cnc3n1COP(=O)(O)O)cnn4C)cn2C [Example 9, (7-(5-Methoxy-1-methyl-1H-indol-3-yl)-1-methylpyrazolo[3,4-d]pyrrolo[2,3-b]pyridin-6(1H)-yl)methyl dihydrogen phosphate] | – | 1000 to 10000
CC(C)(O)c1ccc(-c2nc([C@@H]3CCNC3)n3c2cnc2[nH]ccc23)cc1 [P.3.1.10] | 100 to 1000 | –
COCCOc1ccc(-c2nc(C)n3c2cnc2[nH]ccc23)cc1 [AC.1.15] | 100 to 1000 | –
Cn1ncc2cnc3[nH]c(-c4cccc(C(=O)NCCN5CCOCC5)c4)cc3c21 [N.1.6] | – | < 100
Cn1ncc2cnc3[nH]c(-c4cccc5ncccc45)cc3c21 [N.2.6] | – | 1000 to 10000
CCc1c(-c2ccc(C(=O)NCCN3CCOCC3)cc2)[nH]c2ncc3cnn(C)c3c12 [N.1.36] | – | 100 to 1000
Cc1nc(-c2ccc(C(C)(C)O)cc2Cl)c2cnc3[nH]ccc3n12 [N.1.103] | – | 1000 to 10000
COc1ccc(-c2nc(C3CC3)n3c2cnc2[nH]ccc23)cc1 [N.1.87] | – | < 100
CCc1c(-c2ccc(C(C)(C)O)cc2)[nH]c2ncc3cnn(C)c3c12 [N.1.20] | – | < 100
CC(C)(O)c1ccc(-c2nc(CNC(=O)CO)n3c2cnc2[nH]ccc23)cc1 [AC.5.7] | 100 to 1000 | –

More lines, now with the values ahead:

IC50 [nM] | IC50 [1] [nM] | Compound
1000 to 10000 | – | Cc1nc(-c2cccnc2)c2cnc3[nH]ccc3n12 [AC.1.22]
1000 to 10000 | – | COc1ncc(-c2nc(C)n3c2cnc2[nH]ccc23)cn1 [AC.1.23]
– | 100 to 1000 | Cn1ncc2cnc3[nH]c(-c4cccc(C(=O)N5CCCC5)c4)cc3c21 [N.1.8]
– | < 100 | CC(C)(O)c1ccc(-c2nc(-c3cccnc3)n3c2cnc2[nH]ccc23)cc1 [AC.6.1]
– | 100 to 1000 | CC(=O)c1ccc(-c2cc3c(ncc4cnc(C(=O)NCCN(C)C)n43)[nH]2)cc1 [J.1.5.2]
– | 1000 to 10000 | CCc1c[nH]c2ncc3c(-c4ccc(C(C)(C)O)cc4)nn(C)c3c12 [N.1.60]
100 to 1000 | – | CCc1c(-c2ccc(C(C)(C)N)cc2)[nH]c2ncc3cnn(C)c3c12 [P.3.1.3]
– | 100 to 1000 | COc1ccc2c(c1)c(-c1cc3c(ncc4cnc(C(F)(F)F)n43)[nH]1)cn2C [L.1.1, 7-(5-Methoxy-1-methyl-1H-indol-3-yl)-1-(trifluoromethyl)-6H-imidazo[1,5-a]pyrrolo[2,3-e]pyrazine]
– | 100 to 1000 | O=C(O)/C=C/c1nc(C2CCCCC2)n2c1cnc1[nH]ccc12 [Example 3, (E)-3-(1-Cyclohexyl-6H-imidazo[1,5-a]pyrrolo[2,3-e]pyrazin-3-yl)acrylic acid]
– | 1000 to 10000 | COc1ccc(-c2nc(CN(C)C)n3c2cnc2[nH]ccc23)cc1 [N.1.89]
– | 1000 to 10000 | CC(=O)N[C@@H]1C[C@@H](c2nc(-c3ccc(C(C)(C)O)cc3)c3cnc4[nH]ccc4n23)N(S(=O)(=O)C2CC2)C1 (racemic) [N.1.65]
– | 100 to 1000 | CS(=O)(=O)c1cccc(-c2cc3c(ncc4cnc(C5CCC(O)C5)n43)[nH]2)c1 (stereo not shown) [M.1.6]
– | < 100 | Cc1ncc2cnc3[nH]c(-c4cccc(S(C)(=O)=O)c4)cc3n12 [M.1.3]
– | 1000 to 10000 | COc1ccc(-c2nc(CCN(C)C)n3c2cnc2[nH]ccc23)cc1 [N.1.105]
> 10000 | – | Cn1ncc2cnc3[nH]c(-c4cccn4CC(=O)O)cc3c21 [AN.1.2, 2-(2-(1-methyl-1,6-dihydropyrazolo[3,4-d]pyrrolo[2,3-b]pyridin-7-yl)-1H-pyrrol-1-yl)acetic acid]
– | < 100 | CS(=O)(=O)c1ccc(-c2ncn3c2cnc2[nH]ccc23)cc1 [N.1.90]
– | < 100 | COc1ccc(-c2nn(C)c3c2cnc2[nH]cc(Br)c23)cc1 [AK.1, 8-Bromo-3-(4-methoxyphenyl)-1-methyl-1,6-dihydropyrazolo[3,4-d]pyrrolo[2,3-b]pyridine]
100 to 1000 | – | CC(=O)N1CCC[C@@H]1c1nc(-c2ccc(C(C)(C)O)cc2)c2cnc3[nH]ccc3n12 [AC.5.1]
– | 1000 to 10000 | COc1ccc(-c2cc3c(ncc4nnc(C)n43)[nH]2)cc1 [M.1.19]
100 to 1000 | – | c1cc(-c2nc(C3CCCCC3)n3c2cnc2[nH]ccc23)ccn1 [AC.3.23]
– | < 100 | Cc1nc(-c2ccc(C(C)(C)O)cc2)c2cnc3[nH]cc(Br)c3n12 [AY.1, 2-(4-(8-Bromo-1-methyl-6H-imidazo[1,5-a]pyrrolo[2,3-e]pyrazin-3-yl)phenyl)propan-2-ol]
100 to 1000 | – | CC(=O)NCCc1ccc(-c2nc(C3CCCCC3)n3c2cnc2[nH]ccc23)cc1 [AC.3.19]
< 100 | – | CC(C)(O)c1ccc(-c2ncn3c2cnc2[nH]ccc23)cc1F [AC.4.6]
– | < 100 | Cc1nc(-c2ccc(C(C)(C)O)c(Cl)c2)c2cnc3[nH]ccc3n12 [N.1.108]
< 100 | – | COc1ccc(-c2n[nH]c3c2cnc2[nH]ccc23)cc1 [AU.1.2]
– | < 100 | CC(C)(O)c1ccc(-c2nc(C3CCCNC3)n3c2cnc2[nH]ccc23)cc1 (stereo not shown) [D.2.1]
